Measurements published in US8796327B2, “Method for inhibiting production of cytokines of T helper cell type II and/or inhibiting production of chemokines using brazilin” (China Medical University, priority 2010, dated 2014).

Columns and labels:
IFN-γ = test: ELISA of IFN-γ in bronochial alveolar lavage fluid, mice with asthma (OVA); type: in vivo, BALB/c mice; conditions: for IFN-γ concentration (pico-gram/ml): i.p. or i.t., OVA-sensitized BALB/c mice
Procedure: (§1) In Example 2, mice with asthma were used to conduct in vivo experiments, and ovalbumin (OVA) was used as an allergen.
The mice were sensitized (or challenged) according to the steps shown in FIG. 9 (see Lee et al., Lentiviral-mediated GATA-3 RNAi decreases allergic airway inflammation and hyperresponsiveness. Molecular Therapy, 2008; 16:60-65, which is incorporated herein in its entirety by reference). First, 50 μg OVA (using 2 mg alumina (Alum, Alumlmuject, Pierce Chemical, Rockford, Ill., USA) as an adjuvant) was injected into six to eight-week-old BALB/c female mice (from National Laboratory Animal Center, Taiwan) by intraperitoneal injection (i.p.). At 0th, 14th, and 28th day, the mice were injected with OVA at the same dosage. Before the administration of OVA at the forty-first and the forty-second days, different dosages of brazilin (high dose: 430 μg/mice; low dose: 43 μg/mice) were administrated to the mice by intraperitoneal injection (i.p.) or intratracheal instillation (i.t.). During the fortieth to the forty-second days, 100 μg OVA was dissolved in 40 μl PBS, and was administrated to the mice by intranasal instillation (i.n.) (once everyday, for three days). At the forty-third day, airway hyperresponsiveness of the mice was observed. […]
In Experiment D, after 24 hours from the last administration of OVA into the noses of the mice, the mice were sacrificed, and the blood was collected from the orbital cavities of the mice. […] Cells obtained after the centrifugation were re-suspended in a 1 ml HBSS buffer solution, and the total cell number was counted with a hemocytometer.
The bronochial alveolar lavage fluid collected in Experiment E was centrifuged at 4° C. and with a revolution speed of 400 g for 10 minutes. After the supernatant was collected, the expression of eotaxin, IL-4, IL-5, and IFN-γ was analyzed with an ELISA kit (R&D Systems, Inc., USA). […]

IL-4 mRNA = test: Real-time PCR of IL-4 mRNA in EL-4 T lymphoma cells; type: cell-based, mouse; conditions: for Expression level of IL-4 mRNA: PMA + cAMP stimulated EL-4 cells, corrected to HPRT
Procedure: (§2) Then, at a density of 5×10^5 counts/ml, the T lymphoma cells were bred in a six-well culture dish, and at the 0th minute, brazilin of different concentrations (0.3, 1, 3, 10, or 30 micromole (μM)) was added into the cell culture solution at an amount of 1 μl/ml-cell culture solution. Then, the cells were put into the incubator to be cultured therein. 30 minutes later, at an amount of 1 μl/ml-cell culture solution, 5 μg/ml PMA and cAMP at a 250 mmol concentration were added to the cell culture solution to stimulate the expression of IL-4 and IL-5 of the T lymphoma cells. During the process of cell culture, the trypan blue exclusion assay was employed to observe effect of the brazilin on the cell viability, results of which are shown in Table 1 and FIG. 1.
(§3) Expression of mRNA of IL-4, IL-5, GATA-3, c-maf, and T-bet were analyzed in a quantitative way through real-time polymerase chain reaction (PCR) by extracting RNA in the cells obtained in Experiment A (using an RNA purifying kit), converting the RNA into cDNA through reverse transcription, and using an ABI PRISM 7700 sequence detector (Applied Biosystems, Foster City, Calif., America) to analyze the gene expression of mRNA. The PCR was carried out under the following conditions: 50° C., 2 minutes; 95° C., 10 minutes; 60° C., 1 minute; then repeating this cycle forty times. A threshold cycle (or referred to as Ct) was used to represent the expression level of each gene, and an expression level of hypoxanthine-guanine phosphoribosy transferase (HPRT) genes of the endogenous control group was used for correction of the expression level of mRNA.

[1] = test system: macrophages, lymphocytes, eosinophils, and neutrophils in bronochial alveolar lavage fluid; test: Immunocyte counts in bronochial alveolar lavage fluid, mice with asthma (OVA); type: in vivo; conditions: OVA-sensitized BALB/c mice; for Number of eosinophils (×10^4) / Number of lymphocytes (×10^4) / Number of macrophages (×10^4) / Number of neutrophils (×10^4): i.p. or i.t., bronochial alveolar lavage fluid
Procedure: as §1
The mice were sensitized (or challenged) according to the steps shown in FIG. 9 (see Lee et al., Lentiviral-mediated GATA-3 RNAi decreases allergic airway inflammation and hyperresponsiveness. Molecular Therapy, 2008; 16:60-65, which is incorporated herein in its entirety by reference). First, 50 μg OVA (using 2 mg alumina (Alum, Alumlmuject, Pierce Chemical, Rockford, Ill., USA) as an adjuvant) was injected into six to eight-week-old BALB/c female mice (from National Laboratory Animal Center, Taiwan) by intraperitoneal injection (i.p.). At 0th, 14th, and 28th day, the mice were injected with OVA at the same dosage. Before the administration of OVA at the forty-first and the forty-second days, different dosages of brazilin (high dose: 430 μg/mice; low dose: 43 μg/mice) were administrated to the mice by intraperitoneal injection (i.p.) or intratracheal instillation (i.t.). During the fortieth to the forty-second days, 100 μg OVA was dissolved in 40 μl PBS, and was administrated to the mice by intranasal instillation (i.n.) (once everyday, for three days). At the forty-third day, airway hyperresponsiveness of the mice was observed. At the forty-sixth day, the mice were sacrificed and used to conduct the following Experiments E to G During the above procedure, it was observed if any toxicity response arises after the administration of brazilin to the mice. In this experiment, the mice administrated with OVA were used as a positive control, and the mice not administrated with OVA were used as a negative control.
In Experiment D, after 24 hours from the last administration of OVA into the noses of the mice, the mice were sacrificed, and the blood was collected from the orbital cavities of the mice. Then, a cannula was immediately inserted into the bronchi of the mice, and the lungs of the mice were washed with a 1 ml HBSS buffer solution containing no calcium and magnesium ions three times, and a bronochial alveolar lavage fluid is collected. The fluid was centrifuged at 4° C. and with a revolution speed of 400 g for 10 minutes. Cells obtained after the centrifugation were re-suspended in a 1 ml HBSS buffer solution, and the total cell number was counted with a hemocytometer.
Then, the cells were fixed on a glass sheet in a way of cytocentrifuged preparations, and the Liu's stain (see Lee et al., Lentiviral-mediated GATA-3 RNAi decreases allergic airway inflammation and hyperresponsiveness. Molecular Therapy. 2008; 16:60-65, which is incorporated herein in its entirety by reference) was carried out to calculate the number of various kinds of cells. The cell number was calculated by counting the number of macrophages, lymphocytes, eosinophils, and neutrophils in 300 cells respectively. The cells were categorized according to their standard morphology, and the invasion of inflammatory cells into the lungs was observed.

IL-5 mRNA = test: Real-time PCR of IL-5 mRNA in EL-4 T lymphoma cells; type: cell-based, mouse; conditions: for Expression level of IL-5 mRNA: PMA + cAMP stimulated EL-4 cells, corrected to HPRT
Procedure: as §2, §3

Oc1ccc2c(c1)OC[C@]1(O)Cc3cc(O)c(O)cc3[C@H]21 [brazilin]
effect on IFN-γ cytokine of Th1 cells (IFN-γ; BALB/c mice, result in words): no effect
IFN-γ concentration (pico-gram/ml) (IFN-γ; High dose (430 μg/mice)): 4.288 ± 0.868 pico-gram/ml
IFN-γ concentration (pico-gram/ml) (IFN-γ; Low dose (43 μg/mice)): 3.598 ± 1.218 pico-gram/ml
expression of mRNA of IL-4 (IL-4 mRNA; EL-4 cells, result in words): inhibited
Expression level of IL-4 mRNA (IL-4 mRNA; brazilin 0.3 μM): 2.228 ± 0.4786
Expression level of IL-4 mRNA (IL-4 mRNA; brazilin 1 μM): 2.028 ± 0.1794
Expression level of IL-4 mRNA (IL-4 mRNA; brazilin 3 μM): 2.136 ± 0.2671
Expression level of IL-4 mRNA (IL-4 mRNA; brazilin 10 μM): 1.835 ± 0.2712
Expression level of IL-4 mRNA (IL-4 mRNA; brazilin 30 μM): 1.478 ± 0.1441
Number of eosinophils (×10^4) ([1]; High dose (430 μg/mice)): 10.52 ± 4.543 ×10^4
Number of lymphocytes (×10^4) ([1]; High dose (430 μg/mice)): 0.8106 ± 0.3015 ×10^4
Number of macrophages (×10^4) ([1]; High dose (430 μg/mice)): 34.25 ± 4.970 ×10^4
Number of neutrophils (×10^4) ([1]; High dose (430 μg/mice)): 0.2178 ± 0.1799 ×10^4
Number of eosinophils (×10^4) ([1]; Low dose (43 μg/mice)): 21.39 ± 1.491 ×10^4
Number of lymphocytes (×10^4) ([1]; Low dose (43 μg/mice)): 0.7421 ± 0.2902 ×10^4
Number of macrophages (×10^4) ([1]; Low dose (43 μg/mice)): 41.67 ± 6.885 ×10^4
Number of neutrophils (×10^4) ([1]; Low dose (43 μg/mice)): 0.6476 ± 0.2759 ×10^4
number of eosinophils in the lungs of the mice ([1]; result in words): decreased
expression of mRNA of IL-5 (IL-5 mRNA; EL-4 cells, result in words): inhibited
Expression level of IL-5 mRNA (IL-5 mRNA; brazilin 0.3 μM): 1397 ± 172.2
Expression level of IL-5 mRNA (IL-5 mRNA; brazilin 1 μM): 1225 ± 47.23
Expression level of IL-5 mRNA (IL-5 mRNA; brazilin 3 μM): 1009 ± 77.66
Expression level of IL-5 mRNA (IL-5 mRNA; brazilin 10 μM): 926.2 ± 40.70
Expression level of IL-5 mRNA (IL-5 mRNA; brazilin 30 μM): 594.8 ± 252.9
